The source of these data is PubChem BioAssay AID248 (DTP/NCI, 2004).

Several values for one entry are separate records, joined by “and”; a condition that tells them apart may be missing. Equal entries are not always repeated. Inconclusive results and toxic doses are left out.

The experiment deals with L1210 leukemia ip in BDF1 mice, survival T/C. The experiment in a line: NCI In Vivo Anticancer Drug Screen. Data for tumor model L1210 Leukemia (intraperitoneal) in B6D2F1 (BDF1) mice. As to conditions: endpoint: mean survival time, higher = longer survival. An outline of the steps: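 Mice bearing the transplanted tumor received compound or vehicle. Survival of the treated group was divided by that of the vehicle-treated control group to give the ratio.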

[1] abbreviates: dose: 100.0 mg/kg/injection, schedule: Q01DX009 (ip), vehicle: Klucel (hydroxypropylcellulose) (HPC).
[2] abbreviates: dose: 100.0 mg/kg/injection, schedule: Q01DX001 (ip), vehicle: other.
[3] abbreviates: dose: 400.0 mg/kg/injection, schedule: Q01DX001 (ip), vehicle: other.
Setting [4] is: dose: 200.0 mg/kg/injection, schedule: Q01DX001 (ip), vehicle: other.
Where [5] appears, read: dose: 6.25 mg/kg/injection, schedule: Q01DX009 (ip), vehicle: saline.
Setting [6] is: dose: 12.5 mg/kg/injection, schedule: Q01DX009 (ip), vehicle: saline.
Where [7] appears, read: dose: 25.0 mg/kg/injection, schedule: Q01DX009 (ip), vehicle: saline.
Setting [8] is: dose: 50.0 mg/kg/injection, schedule: Q01DX009 (ip), vehicle: saline.
[9] abbreviates: dose: 100.0 mg/kg/injection, schedule: Q01DX009 (ip), vehicle: saline.
Where [10] appears, read: dose: 200.0 mg/kg/injection, schedule: Q01DX009 (ip), vehicle: saline.
The mark [11] stands for this setting: dose: 100.0 mg/kg/injection, schedule: Q01DX001 (ip), vehicle: saline.
Setting [12] is: dose: 200.0 mg/kg/injection, schedule: Q01DX001 (ip), vehicle: saline.
Where [13] appears, read: dose: 100.0 mg/kg/injection, schedule: Q04DX003 (ip), vehicle: saline.
The mark [14] stands for this setting: dose: 200.0 mg/kg/injection, schedule: Q04DX003 (ip), vehicle: saline.

Turning to `CCCCNC(=O)c1cc(Cl)cc(Cl)c1Br`, the T/C by setting is: (dose: 100.0 mg/kg/injection, schedule: Q01DX001 (ip), vehicle: saline with Tween-80) 91 % of control; (dose: 200.0 mg/kg/injection, schedule: Q01DX001 (ip), vehicle: saline with Tween-80) 90 % of control; (dose: 400.0 mg/kg/injection, schedule: Q01DX001 (ip), vehicle: saline with Tween-80) 93 % of control.
As for `Cc1ccc(C)c(NC(=O)N2CCCCC2C)c1` (configuration not stated), the T/C is, setting by setting: under setting [1], 101 % of control; (dose: 100.0 mg/kg/injection, schedule: Q04DX003 (ip), vehicle: Klucel (hydroxypropylcellulose) (HPC)) 98 % of control; (dose: 200.0 mg/kg/injection, schedule: Q01DX009 (ip), vehicle: Klucel (hydroxypropylcellulose) (HPC)) 101 % of control; (dose: 200.0 mg/kg/injection, schedule: Q04DX003 (ip), vehicle: Klucel (hydroxypropylcellulose) (HPC)) 102 % of control; (dose: 400.0 mg/kg/injection, schedule: Q01DX009 (ip), vehicle: Klucel (hydroxypropylcellulose) (HPC)) 97 % of control; (dose: 400.0 mg/kg/injection, schedule: Q04DX003 (ip), vehicle: Klucel (hydroxypropylcellulose) (HPC)) 100 % of control.
For the compound `Cn1c(=O)c2[nH]c(C3CC=CCC3)nc2n(C)c1=O` (configuration not stated), the T/C is 97 % of control (dose: 50.0 mg/kg/injection, schedule: Q01DX001 (ip), vehicle: other); 95 % of control under setting [2]; 94 % of control under setting [3].
With `Cn1cc(C2Cc3ccccc3NC3=C2C(=O)CC(C)(C)C3)c2ccccc21` (configuration not stated), the T/C is 103 % of control under setting [2], 92 % of control under setting [4] and 86 % of control under setting [3].
As to `O=C(O)CC(NC(=O)CP(=O)(O)O)C(=O)O` (configuration not stated), the T/C (dose: 0.39 mg/kg/injection, schedule: Q01DX009 (ip), vehicle: saline) is 104 % of control; the T/C (dose: 0.78 mg/kg/injection, schedule: Q01DX009 (ip), vehicle: saline) was 96 % of control; the T/C (dose: 1.56 mg/kg/injection, schedule: Q01DX009 (ip), vehicle: saline) is 100 % of control; the T/C (dose: 3.12 mg/kg/injection, schedule: Q01DX009 (ip), vehicle: saline) was 100 % of control; the T/C under setting [5] is 100 % of control; the T/C under setting [6] was 98 % of control. Also, the T/C is 93 % of control and 94 % of control under setting [7]; 96 % of control and 98 % of control under setting [8]; 104 % of control and 122 % of control under setting [9]; 117 % of control and 122 % of control under setting [10]; 113 % of control (dose: 225.0 mg/kg/injection, schedule: Q01DX009 (ip), vehicle: saline); 113 % of control (dose: 240.0 mg/kg/injection, schedule: Q04DX003 (ip), vehicle: saline). In addition, the T/C runs as follows: (dose: 250.0 mg/kg/injection, schedule: Q01DX009 (ip), vehicle: saline) 109 % of control; (dose: 275.0 mg/kg/injection, schedule: Q01DX009 (ip), vehicle: saline) 109 % of control; (dose: 343.0 mg/kg/injection, schedule: Q04DX003 (ip), vehicle: saline) 117 % of control; (dose: 400.0 mg/kg/injection, schedule: Q01DX009 (ip), vehicle: saline) 89 % of control; (dose: 490.0 mg/kg/injection, schedule: Q04DX003 (ip), vehicle: saline) 113 % of control; (dose: 700.0 mg/kg/injection, schedule: Q04DX003 (ip), vehicle: saline) 119 % of control.
In the case of `O=C(CI)c1ccc[nH]1`, the T/C is 100 % of control (dose: 50.0 mg/kg/injection, schedule: Q01DX001 (ip), vehicle: saline); 100 % of control under setting [11]; 103 % of control under setting [12].
For `c1ccc(-c2nn3c(-c4ccccc4)nnc3o2)cc1`, the T/C runs as follows: (dose: 66.0 mg/kg/injection, schedule: Q01DX009 (ip), vehicle: saline with Tween-80) 90 % of control; (dose: 100.0 mg/kg/injection, schedule: Q04DX003 (ip), vehicle: saline with Tween-80) 92 % of control; (dose: 150.0 mg/kg/injection, schedule: Q01DX009 (ip), vehicle: saline with Tween-80) 95 % of control; (dose: 200.0 mg/kg/injection, schedule: Q01DX009 (ip), vehicle: saline with Tween-80) 90 % of control; (dose: 200.0 mg/kg/injection, schedule: Q04DX003 (ip), vehicle: saline with Tween-80) 93 % of control; (dose: 400.0 mg/kg/injection, schedule: Q01DX009 (ip), vehicle: saline with Tween-80) 164 % of control. Besides, the T/C (dose: 400.0 mg/kg/injection, schedule: Q04DX003 (ip), vehicle: saline with Tween-80) was 92 % of control.
`CC1CC(C)(C)[N+]2=C(CCCC2)O1` (configuration not stated): the T/C is, setting by setting: under setting [5], 96 % of control; under setting [6], 94 % of control; under setting [7], 103 % of control.
For the compound `C=CC(=O)N(C)OC`, the T/C is, setting by setting: under setting [11], 101 % of control; under setting [13], 100 % of control; under setting [12], 96 % of control; under setting [14], 104 % of control; (dose: 400.0 mg/kg/injection, schedule: Q01DX001 (ip), vehicle: saline) 112 % of control; (dose: 400.0 mg/kg/injection, schedule: Q04DX003 (ip), vehicle: saline) 98 % of control.
For the compound `O=C(C(Cl)Cl)C(Cl)Cl`, the T/C (dose: 10.0 mg/kg/injection, schedule: Q01DX001 (ip), vehicle: carboxymethylcellulose (CMC)) is 106 % of control.
Turning to `CC(CCCCCOC(=O)Nc1ccccc1)OC(=O)Nc1ccccc1` (configuration not stated), the T/C runs as follows: under setting [2], 98 % of control; under setting [4], 87 % of control; under setting [3], 96 % of control.
On to `Cc1cc(F)ccc1[As](=O)(O)O`, for which the T/C (dose: 25.0 mg/kg/injection, schedule: Q04DX003 (ip), vehicle: saline with Tween-80) was 101 % of control.
Turning to `CNNC(=O)Cc1ccccc1`, the T/C under setting [2] is 92 % of control, the T/C under setting [4] was 108 % of control and the T/C under setting [3] is 108 % of control.
`O=C(c1cc(=O)[nH]c(=O)[nH]1)N(CCO)CCO`: the T/C is, setting by setting: (dose: 100.0 mg/kg/injection, schedule: Q01DX Z (ip), vehicle: saline) 106 % of control; (dose: 200.0 mg/kg/injection, schedule: Q01DX Z (ip), vehicle: saline) 93 % of control.
Consider `CC1(C)N=C(N)N=C(N)N1c1ccc(Oc2ccc(S(=O)(=O)F)cc2)cc1`, for which the T/C was 92 % of control (dose: 50.0 mg/kg/injection, schedule: Q01DX001 (ip), vehicle: Klucel (hydroxypropylcellulose) (HPC)); 95 % of control (dose: 100.0 mg/kg/injection, schedule: Q01DX001 (ip), vehicle: Klucel (hydroxypropylcellulose) (HPC)); 100 % of control (dose: 200.0 mg/kg/injection, schedule: Q01DX001 (ip), vehicle: Klucel (hydroxypropylcellulose) (HPC)).
Turning to `CN(C)C1C(=O)C(C(=O)NCNC(CCS)C(=O)O)=C(O)C2(O)C(=O)C3=C(O)c4c(O)cccc4C(C)(O)C3CC12` (configuration not stated), the T/C runs as follows: (dose: 20.0 mg/kg/injection, schedule: Q01DX Z (ip), vehicle: saline) 104 % of control; (dose: 40.0 mg/kg/injection, schedule: Q01DX Z (ip), vehicle: saline) 98 % of control; (dose: 80.0 mg/kg/injection, schedule: Q01DX Z (ip), vehicle: saline) 96 % of control and 100 % of control; (dose: 160.0 mg/kg/injection, schedule: Q01DX Z (ip), vehicle: saline) 98 % of control and 101 % of control; (dose: 320.0 mg/kg/injection, schedule: Q01DX Z (ip), vehicle: saline) 100 % of control.
`CS(=O)(=O)OCCCCCCCCCOS(C)(=O)=O`: the T/C is 96 % of control (dose: 25.0 mg/kg/injection, schedule: Q01DX009 (ip), vehicle: Klucel (hydroxypropylcellulose) (HPC)); 103 % of control (dose: 50.0 mg/kg/injection, schedule: Q01DX009 (ip), vehicle: Klucel (hydroxypropylcellulose) (HPC)); 95 % of control (dose: 75.0 mg/kg/injection, schedule: Q01DX001 (ip), vehicle: other); 105 % of control under setting [1]; 108 % of control (dose: 150.0 mg/kg/injection, schedule: Q01DX001 (ip), vehicle: other).
As for `CCOP(=O)(OCC)Oc1cc(C)c(SC)c(C)c1`, the T/C runs as follows: (dose: 75.0 mg/kg/injection, schedule: Q01DX001 (ip), vehicle: saline) 89 % of control; (dose: 150.0 mg/kg/injection, schedule: Q01DX001 (ip), vehicle: saline) 101 % of control.
On to `C=CCNCC1OC(OC)C2OC(C)(C)OC12` (configuration not stated), for which the T/C runs as follows: under setting [8], 101 % of control; under setting [9], 104 % of control; under setting [13], 109 % of control; under setting [10], 104 % of control; under setting [14], 102 % of control.
